Data on 3 compounds can be found in patent EP1874270B1, “PHARMACEUTICAL AEROSOL COMPOSITION” (priority 2005, dated 2006).

The format of data set [1] is physicochemical. How it is done: Buffered aqueous solutions of tyloxapol, DMPC and tyloxapol in a mixture with DMPC were prepared. The saturation solubility of budesonide in these solutions was measured by adding an excess of budesonide and treating the sample with heat and ultrasound and subsequently allowing it to stand for equilibration. The equilibrated samples were filtered through a membrane filter with a pore width of 0.22 µm and the content of budesonide in the filtrate was determined. […]

Data set [2] in a line: Colloidal solubilization of the active agent with non-ionic surfactant and lecithin.
Data set [3] is described as follows: Inhalation experiments: local anesthetic effect. The note with it: inhalation of 0.55 % (w/v) lidocaine base in colloidal tyloxapol/DMPC solution (Example 5); effect undesirable in this context. Format: in vivo. The source says: Sometimes, but not necessarily, bad taste is accompanied by mucosal irritations caused by the substance. This occurs in various degrees which, in the case of application by inhalation, may range from slight irritation of the pharynx and/or respiratory tract to cough, fits of coughing, bronchoconstrictions and bronchospasms. […] In a further embodiment of the invention, the preparation accordingly contains an active agent which is irritating to the mucosa or causes coughing or bronchoconstrictions. In this connection, active agents from the group of corticoids, betamimetics, anti-cholinergics, anesthetics and antiinfectives are again preferred.
After a sterile filtration, the colloidal solution was filled into pre-sterilized single dose containers (0.5 - 3 ml) of glass and polypropylene.

The mark [4] stands for this setting: Polysorbate 80 0.10 wt.-%, Lipoid S100 1.0 wt.-%, ratio 1:10.
Setting [5] is: Polysorbate 80 0.50 wt.-%, Lipoid S100 3.0 wt.-%, ratio 1 : 6.

Each structure is given as a SMILES string.

Consider `CCCC1O[C@@H]2C[C@H]3[C@@H]4CCC5=CC(=O)C=C[C@]5(C)[C@H]4[C@@H](O)C[C@]3(C)[C@]2(C(=O)CO)O1` (stereo partly drawn) [Budesonide, budesonide], for which the “saturation concentration of budesonide in DMPC solutions” value in data set [1] is on record as “could not be increased”. For the same compound, the Budesonide solubilized in data set [2] (setting [4]) is 0.36 mg/mL; in data set [2] (Polysorbate 80 0.15 wt.-%, Lipoid S100 1.5 wt.-%, ratio 1:10), 0.43 mg/mL; in data set [2] (Polysorbate 80 0.25 wt.-%, Lipoid S100 1.5 wt.-%, ratio 1 : 6), 0.47 mg/mL; in data set [2] (Polysorbate 80 0.40 wt.-%, Lipoid S100 1.5 wt.-%, ratio 1 : 3.75 (for comparison and/or reference only)), 0.50 mg/mL; in data set [2] (Polysorbate 80 0.50 wt.-%, Lipoid S100 2.0 wt.-%, ratio 1:4 (for comparison and/or reference only)) it was 0.83 mg/mL; in data set [2] (setting [5]), 1.09 mg/mL. In addition, the Budesonide solubilized turned out to be 0.43 mg/mL in data set [2] (Solutrol HS 15 0.10 wt.-%, Lipoid S100 1.5 wt.-%, ratio 1 : 15); 0.47 mg/mL in data set [2] (Solutrol HS 15 0.25 wt.-%, Lipoid S100 1.5 wt.-%, ratio 1 : 6); 0.48 mg/mL in data set [2] (Solutrol HS 15 0.50 wt.-%, Lipoid S100 1.5 wt.-%, ratio 1 : 3.33 (for comparison and/or reference only)); 0.37 mg/mL in data set [2] (Vitamin E TPGS 0.10 wt.-%, Lipoid S100 1.0 wt.-%, ratio 1 : 10); 0.44 mg/mL in data set [2] (Vitamin E TPGS 0.10 wt.-%, Lipoid S100 1.5 wt.-%, ratio 1 : 15); 0.46 mg/mL in data set [2] (Vitamin E TPGS 0.25 wt.-%, Lipoid S100 1.5 wt.-%, ratio 1 : 6). Besides, the Budesonide solubilized turned out to be 0.48 mg/mL in data set [2] (Vitamin E TPGS 0.50 wt.-%, Lipoid S100 1.5 wt.-%, ratio 1 : 3.33 (for comparison and/or reference only)); 0.80 mg/mL in data set [2] (Vitamin E TPGS 0.50 wt.-%, Lipoid S100 2.0 wt.-%, ratio 1 : 4 (for comparison and/or reference only)); 1.09 mg/mL in data set [2] (Vitamin E TPGS 0.50 wt.-%, Lipoid S100 3.0 wt.-%, ratio 1 : 6). In addition, the “budesonide colloidally solubilized at a concentration of” value in data set [2] (vitamin E TPGS 0.04 wt.-%, polysorbate 80 0.06 wt.-%, lecithin 1.0 wt.-%) is 0.38 mg/mL; in data set [2] (vitamin E TPGS 0.2 wt.-%, polysorbate 80 0.3 wt.-%, lecithin 3.0 wt.-%), 0.95 mg/mL.

`CCC(=O)O[C@]1(C(=O)SCF)[C@H](C)C[C@H]2[C@@H]3C[C@H](F)C4=CC(=O)C=C[C@]4(C)[C@@]3(F)[C@@H](O)C[C@@]21C` [Fluticasone prop., fluticasone propionate]: the Fluticasone prop. solubilized in data set [2] (setting [4]) was 0.07 mg/mL; in data set [2] (setting [5]), 0.18 mg/mL.

Take `CCN(CC)CC(=O)Nc1c(C)cccc1C` [lidocaine]: the “local anesthetic effect of lidocaine” value in data set [3] is reported as “reduced”.
